Experimental data reported in patent publication US20240116933A1, “INDAZOLE AND PYRAZOLOPYRIDINE COMPOUNDS AS INHIBITORS OF NLRP3 INFLAMMASOME” (BioAge Labs, Inc., priority 2022, published 2024).

biological target: T1, NLRP3 inflammasome (Homo sapiens, UniProt Q96P20); assay: THP-1 Cell-Based NLRP3 Activation Assay; details: THP-1 cells, PMA, 100 ng/mL LPS 3 hrs, 30 min pre-incubation with test compound, 10 μM nigericin 1 hr
T1 construct: endogenous in cells; host or cells: THP-1 cells (PMA-differentiated, LPS-primed, nigericin-stimulated)
Method: THP-1 cells are cultured in complete media (CM) until they reach logarithmic growth and achieve a viability >90%. CM is composed of RPMI-1640 (+Glutamax)/10% fetal bovine serum/55 μM β-mercaptoethanol/pen/strep. Cells are spun down and resuspended to 1,000,000 cells/mL in CM containing either 20 nM or 500 nM PMA. 150,000 cells […] are then added to each well of a 96-well TC plate and incubated for either 24 hr or 3 hr, respectively, in a standard cell culture incubator (37° C.; 5% CO2). After this incubation, the plate is tilted and media carefully removed. 200 μL of CM containing 100 ng/mL LPS is then added to the wells and the cells incubated an additional 3 hrs. The media is again removed and replaced with Opti-Mem medium containing pre-determined dilutions of test compounds in replicate wells. After a 30 min pre-incubation with test compound, 10 μM nigericin (final concentration) in Opti-Mem medium with the corresponding concentration of compound is added to the wells for an additional 1 hr. Positive control wells contain 10 μM nigericin in Opti-Mem in the absence of test compound, while negative control wells contain Opti-Mem only. […] Once supernatants are removed, the relative viability of adherent cells in the 96-well TC plate are determined using a CellTiter-Glo® luminescent cell viability assay (Promega).

T1 sequence (Q96P20 whole entry): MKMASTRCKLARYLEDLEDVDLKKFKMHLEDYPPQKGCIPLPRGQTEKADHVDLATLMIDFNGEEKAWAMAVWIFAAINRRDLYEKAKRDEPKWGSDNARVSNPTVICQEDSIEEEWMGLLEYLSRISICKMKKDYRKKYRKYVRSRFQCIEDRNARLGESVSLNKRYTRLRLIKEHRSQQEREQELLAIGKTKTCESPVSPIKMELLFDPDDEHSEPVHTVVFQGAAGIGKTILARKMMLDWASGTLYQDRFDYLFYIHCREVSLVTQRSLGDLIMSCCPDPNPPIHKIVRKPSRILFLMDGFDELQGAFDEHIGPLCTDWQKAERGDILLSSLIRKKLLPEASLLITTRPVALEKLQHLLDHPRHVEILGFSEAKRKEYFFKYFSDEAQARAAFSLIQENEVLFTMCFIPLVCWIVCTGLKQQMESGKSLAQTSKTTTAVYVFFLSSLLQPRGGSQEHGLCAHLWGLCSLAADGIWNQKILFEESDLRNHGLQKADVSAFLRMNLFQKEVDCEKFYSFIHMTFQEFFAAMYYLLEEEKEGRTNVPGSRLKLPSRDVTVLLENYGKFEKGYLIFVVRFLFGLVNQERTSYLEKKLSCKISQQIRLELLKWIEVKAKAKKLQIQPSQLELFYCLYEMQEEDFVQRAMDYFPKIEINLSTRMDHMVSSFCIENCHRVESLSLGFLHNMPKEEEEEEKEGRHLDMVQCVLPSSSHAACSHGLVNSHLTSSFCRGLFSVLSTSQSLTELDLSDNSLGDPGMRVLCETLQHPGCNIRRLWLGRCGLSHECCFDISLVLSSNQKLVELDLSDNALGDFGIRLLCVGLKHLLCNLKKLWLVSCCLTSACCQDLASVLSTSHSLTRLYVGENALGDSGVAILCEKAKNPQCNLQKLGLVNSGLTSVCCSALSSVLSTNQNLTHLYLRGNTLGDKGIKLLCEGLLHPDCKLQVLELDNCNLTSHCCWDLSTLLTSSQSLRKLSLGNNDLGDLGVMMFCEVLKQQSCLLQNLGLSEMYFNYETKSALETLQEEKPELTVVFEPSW

`CCOc1cc(C(=O)N(CC)Cc2cnc(CO)c3cn[nH]c23)ccc1-c1cccc(F)c1` [Compound 097] and `CCOc1cc(C(=O)N(CC)Cc2cnc(CO)c3cn[nH]c23)ccc1-c1cccc(C#N)c1` [Compound 103] cannot be ordered by IC50: under 1 µM for the first, under 10 µM for the second.

`CCOc1cc(C(=O)N(C)Cc2cc(O)cc3cn[nH]c23)cc(F)c1-c1cccc(F)c1` [Compound 098] and `CN(Cc1cc(O)cc2cn[nH]c12)C(=O)c1cc(F)c(-c2cccc(F)c2)c(OC2CC2)c1` [Compound 099] cannot be ordered by IC50: under 1 µM for the first, under 1 µM for the second.

`CCN(Cc1cnc(CO)c2cn[nH]c12)C(=O)c1ccc(-c2cccc(F)c2)c(OC2CC2)c1` [Compound 100] and `CN(Cc1cnc(CO)c2cn[nH]c12)C(=O)c1ccc(-c2cccc(F)c2)c(OC2CCC2)c1` [Compound 137] cannot be ordered by IC50: under 1 µM for the first, under 1 µM for the second.

`CC(O)c1ncc(CN(C)C(=O)c2ccc(-c3cccc(Cl)c3)c(OC3CC3)c2)c2[nH]ncc12` (stereo not shown) [Compound 101] and `CC(C)Oc1cc(C(=O)N(C)Cc2cnc(C(C)O)c3cn[nH]c23)ccc1-c1cccc(Cl)c1` (stereo not shown) [Compound 141] cannot be ordered by IC50: under 1 µM for the first, under 1 µM for the second.

`CN(Cc1cnc(CF)c2cn[nH]c12)C(=O)c1cc(F)c(-c2cccs2)c(OC2CC2)c1` [Compound 105] and `CCOc1cc(C(=O)N(C)Cc2cnc(CO)c3cn[nH]c23)cc(F)c1-c1cccs1` [Compound 106] cannot be ordered by IC50: under 1 µM for the first, under 1 µM for the second.

`CCOc1cc(C(=O)N(C)Cc2cnc(CO)c3cn[nH]c23)cc(F)c1-c1ccsc1` [Compound 107] and `CCOc1cc(C(=O)N(C)Cc2cnc(CO)c3cn[nH]c23)cc(F)c1-c1cc(F)cc(F)c1` [Compound 131] cannot be ordered by IC50: under 1 µM for the first, under 1 µM for the second.

`CN(Cc1cnc(CO)c2cn[nH]c12)C(=O)c1ccc(-c2cccc(Cl)c2)c(OC2COC2)c1` [Compound 108] and `CN(Cc1cnc(CO)c2cn[nH]c12)C(=O)c1ccc(-c2cccc(F)c2)c(OC2COC2)c1` [Compound 151] cannot be ordered by IC50: under 1 µM for the first, under 10 µM for the second.

`CCC(c1cncc2cn[nH]c12)N(C)C(=O)c1ccc(-c2cccc(F)c2)c(OC2CC2)c1` (stereo not shown) [Compound 109] and `CCOc1cc(C(=O)N(C)C(CC)c2cncc3cn[nH]c23)ccc1-c1cccc(F)c1` (stereo not shown) [Compound 117] cannot be ordered by IC50: under 1 µM for the first, under 1 µM for the second.

`CN(Cc1cc(O)cc2cn[nH]c12)C(=O)c1cc(F)c(-c2cccc(C#N)c2)c(OC2CC2)c1` [Compound 111] and `CN(Cc1cc(O)cc2cn[nH]c12)C(=O)c1cc(F)c(-c2cccc(Cl)c2)c(OC2CC2)c1` [Compound 113] cannot be ordered by IC50: under 1 µM for the first, under 1 µM for the second.

`CCOc1cc(C(=O)N(C)Cc2cc(O)cc3cn[nH]c23)cc(F)c1-c1ccccc1` [Compound 112] and `CN(Cc1cc(O)cc2cn[nH]c12)C(=O)c1cc(F)c(-c2ccccc2)c(OC2CC2)c1` [Compound 114] cannot be ordered by IC50: under 1 µM for the first, under 1 µM for the second.

`CC(O)c1ncc(CN(C)C(=O)c2cc(F)c(-c3cccc(Cl)c3)c(OC3CC3)c2)c2[nH]ncc12` (stereo not shown) [Compound 115] and `CCOc1cc(C(=O)N(C)Cc2cnc(C(C)O)c3cn[nH]c23)cc(F)c1-c1cccc(F)c1` (stereo not shown) [Compound 118] cannot be ordered by IC50: under 1 µM for the first, under 1 µM for the second.

`CCOc1cc(C(=O)N(C)C(C)c2ccc(F)c3cn[nH]c23)ccc1-c1cccc(F)c1` (stereo not shown) [Compound 116] and `CCOc1cc(C(=O)N(C)[C@H](C)c2cnc(CO)c3cn[nH]c23)ccc1-c1cccc(F)c1` [Compound 159] cannot be ordered by IC50: under 1 µM for the first, under 1 µM for the second.

`Cc1nc(C)c2cn[nH]c2c1CN(C)C(=O)c1cc(F)c(-c2cccc(F)c2)c(OC2CC2)c1` [Compound 119] and `Cc1nc(C)c2cn[nH]c2c1CN(C)C(=O)c1cc(F)c(-c2cccc(Cl)c2)c(OC2CC2)c1` [Compound 120] cannot be ordered by IC50: under 1 µM for the first, under 1 µM for the second.

`CCOc1cc(C(=O)N(C)Cc2cccc3cn[nH]c23)sc1-c1cccc(F)c1` [Compound 121] and `CCOc1nc(C(=O)N(C)Cc2cc(O)cc3cn[nH]c23)ccc1-c1cccc(F)c1` [Compound 128] cannot be ordered by IC50: under 1 µM for the first, under 10 µM for the second.

`Cc1ncc(CNC(=O)c2cc(F)c(-c3cccc(Cl)c3)c(OC3CC3)c2)c2[nH]ncc12` [Compound 122] and `CN(Cc1c(CO)ncc2cn[nH]c12)C(=O)c1cc(F)c(-c2cccc(Cl)c2)c(OC2CC2)c1` [Compound 145] cannot be ordered by IC50: under 1 µM for the first, under 1 µM for the second.

`CCOc1nc(C(=O)N(C)[C@@H](C)c2cnc(C)c3cn[nH]c23)ccc1-c1cccc(F)c1` [Compound 123] and `CCOc1nc(C(=O)N(C)[C@H](C)c2cnc(C)c3cn[nH]c23)ccc1-c1cccc(F)c1` [Compound 124] cannot be ordered by IC50: under 1 µM for the first, under 50 µM for the second.

`CCOc1cc(C(=O)N(C)Cc2cnc(C)c3cn[nH]c23)cc(CF)c1-c1cccc(F)c1` [Compound 125] and `CCOc1cc(C(=O)N(C)Cc2cnc(C(C)O)c3cn[nH]c23)cc(Cl)c1-c1cccc(F)c1` (stereo not shown) [Compound 156] cannot be ordered by IC50: under 10 µM for the first, under 50 µM for the second.

`CCOc1cc(C(=O)N(C)Cc2cccc3[nH]ncc23)ccc1-c1cccc(C#N)c1` [Compound 126] and `CCOc1cc(C(=O)N(C)Cc2cccc3[nH]ncc23)ccc1-c1cccc(F)c1` [Compound 129] cannot be ordered by IC50: under 1 µM for the first, under 10 µM for the second.

`CC(C)Oc1cc(C(=O)N(C)Cc2cnc(CO)c3cn[nH]c23)ccc1-c1cccc(F)c1` [Compound 134] and `CC(C)Oc1cc(C(=O)N(C)Cc2cnc(CO)c3cn[nH]c23)ccc1-c1cccc(Cl)c1` [Compound 143] cannot be ordered by IC50: under 1 µM for the first, under 1 µM for the second.

`CCOc1cc(C(=O)N(C)Cc2c(C(C)O)ncc3cn[nH]c23)ccc1-c1cccc(F)c1` (stereo not shown) [Compound 135] and `CCOc1cc(C(=O)N(C)Cc2c(F)c(O)cc3cn[nH]c23)ccc1-c1cccc(F)c1` [Compound 148] cannot be ordered by IC50: under 1 µM for the first, under 1 µM for the second.

`CCCOc1cc(C(=O)N(C)Cc2cnc(CO)c3cn[nH]c23)cc(F)c1-c1cc(F)cc(F)c1` [Compound 136] and `CCCOc1cc(C(=O)N(C)Cc2cnc(CO)c3cn[nH]c23)cc(F)c1-c1cccc(F)c1` [Compound 138] cannot be ordered by IC50: under 1 µM for the first, under 1 µM for the second.

`CN(Cc1c(CO)ncc2cn[nH]c12)C(=O)c1cc(F)c(-c2cccc(F)c2)c(OC2CC2)c1` [Compound 139] and `CN(Cc1cnc(CO)c2cn[nH]c12)C(=O)c1cc(Cl)c(-c2cccc(F)c2)c(OC2CC2)c1` [Compound 162] cannot be ordered by IC50: under 1 µM for the first, under 1 µM for the second.

`CCOc1cc(C(=O)N(C)Cc2cnc(C)c3cn[nH]c23)ccc1-c1cc(F)cs1` [Compound 140] and `CCOc1cc(C(=O)N(C)Cc2cnc(C)c3cn[nH]c23)ccc1-c1cc(C#N)cs1` [Compound 153] cannot be ordered by IC50: under 10 µM for the first, under 10 µM for the second.

`CC(C)Oc1cc(C(=O)N(C)Cc2cnc(CO)c3cn[nH]c23)ccc1-c1cc(F)cc(F)c1` [Compound 142] and `CC(C)Oc1cc(C(=O)N(C)Cc2cnc(C(C)O)c3cn[nH]c23)ccc1-c1cc(F)cc(F)c1` (stereo not shown) [Compound 146] cannot be ordered by IC50: under 1 µM for the first, under 1 µM for the second.

`CN(Cc1c(CO)ncc2cn[nH]c12)C(=O)c1ccc(-c2cccc(Cl)c2)c(OC2CC2)c1` [Compound 144] and `CN(Cc1cnc(CO)c2cn[nH]c12)C(=O)c1cc(Cl)c(-c2cccc(Cl)c2)c(OC2CC2)c1` [Compound 161] cannot be ordered by IC50: under 1 µM for the first, under 1 µM for the second.

`CCCOc1cc(C(=O)N(C)Cc2cnc(CO)c3cn[nH]c23)ccc1-c1cccc(F)c1` [Compound 147] and `CCOc1cc(C(=O)NCc2cnc(CO)c3cn[nH]c23)ccc1-c1cccc(F)c1` [Compound 150] cannot be ordered by IC50: under 1 µM for the first, under 1 µM for the second.

`CCOc1cc(C(=O)N(C)Cc2cnc(C(C)O)c3cn[nH]c23)ccc1-c1nccs1` (stereo not shown) [Compound 149] and `CCOc1cc(C(=O)N(C)Cc2cnc(C(C)O)c3cn[nH]c23)ccc1-c1nc(Cl)cs1` (stereo not shown) [Compound 158] cannot be ordered by IC50: under 10 µM for the first, under 1 µM for the second.

`CN(Cc1cnc(CO)c2cn[nH]c12)C(=O)c1ccc(-c2cc(F)cc(Cl)c2)c(OC2COC2)c1` [Compound 152] and `CN(Cc1cnc(CO)c2cn[nH]c12)C(=O)c1ccc(-c2cc(F)cc(F)c2)c(OC2COC2)c1` [Compound 155] cannot be ordered by IC50: under 1 µM for the first, under 1 µM for the second.

`CCOc1cc(C(=O)N(C)Cc2cnc(C(C)O)c3cn[nH]c23)cc(F)c1-c1cccs1` (stereo not shown) [Compound 154] and `CCOc1cc(C(=O)N(C)Cc2cnc(C(C)O)c3cn[nH]c23)cc(Cl)c1-c1cccc(Cl)c1` (stereo not shown) [Compound 166] cannot be ordered by IC50: under 1 µM for the first, under 1 µM for the second.

`CCOc1cc(C(=O)N(C)Cc2cnc(CO)c3cn[nH]c23)ccc1-c1nc(Cl)cs1` [Compound 157] and `CCOc1cc(C(=O)N(C)Cc2cnc(CO)c3cn[nH]c23)ccc1-c1ccc(Cl)s1` [Compound 164] cannot be ordered by IC50: under 1 µM for the first, under 1 µM for the second.

`CCOc1cc(C(=O)N(C)[C@@H](C)c2cnc(CO)c3cn[nH]c23)ccc1-c1cccc(F)c1` [Compound 160] and `CCOc1cc(C(=O)N(C)Cc2cnc(C(O)C(F)(F)F)c3cn[nH]c23)ccc1-c1cccc(F)c1` (stereo not shown) [Compound 171] cannot be ordered by IC50: under 1 µM for the first, under 1 µM for the second.

`CCOc1cc(C(=O)N(C)Cc2cnc(C(C)O)c3cn[nH]c23)ccc1-c1ccc(Cl)s1` (stereo not shown) [Compound 163] and `CC(O)c1ncc(CN(C)C(=O)c2ccc(-c3ccc(Cl)s3)c(OC3CC3)c2)c2[nH]ncc12` (stereo not shown) [Compound 168] cannot be ordered by IC50: under 1 µM for the first, under 1 µM for the second.

`CCOc1cc(C(=O)N(C)Cc2c(C)c(OC)cc3cn[nH]c23)ccc1-c1cccc(F)c1` [Compound 167] and `CCOc1cc(C(=O)N(C)Cc2cnc(C)c3cn[nH]c23)ccc1-c1cccs1` [Compound 170] cannot be ordered by IC50: under 1 µM for the first, under 1 µM for the second.

For `CCOc1cc(C(=O)N(CC)Cc2cnc(C(C)O)c3cn[nH]c23)cc(F)c1-c1cccc(Cl)c1` (stereo not shown) [Compound 172], the IC50 was under 1 µM.
